Four molecules from ChEMBL document CHEMBL1136096, “Design and biological evaluation of novel antioxidants containing N-t-Butyl-N-hydroxylaminophenyl moieties” (Bioorg Med Chem Lett, 2003) can be followed below.

What all share (assay type): functional
In test [1] the test system is Gerbillinae. Kind of test: In vitro inhibitory activity against lipid peroxidation in gerbils.
The test system of test [2] is Gerbillinae. Description: In vivo neuroprotective activity in gerbils (neuronal cell survival) before ischemic injury.
The test system of test [3] is Gerbillinae. Kind of test: In vivo neuroprotective activity in gerbils (neuronal cell survival) after ischemic injury.

The molecule `CC(C)(C)N(O)c1ccc(C(=O)Nc2ccccn2)cc1` showed an IC50 in the test on Gerbillinae [1] of 4.3 µM.
Turning to `CC(C)(C)N(O)c1ccc(C(=O)Nc2nccs2)cc1`, the “Cell Survival” value with Gerbillinae [2] is listed as 57%; in the test on Gerbillinae [3], 81%. The midpoint of inhibition with Gerbillinae [1], the IC50, lay at 1.44 µM.
In the case of `CC(C)(C)N(O)c1ccc(C(=O)NCc2ccccn2)cc1`, 11.1 µM corresponded to half-maximal inhibition in the test on Gerbillinae [1] (IC50).
As for `O=c1c2ccccc2[se]n1-c1ccccc1` [EBSELEN], the “Cell Survival” value in the test with Gerbillinae [2] and with Gerbillinae [3] was 58% throughout. Further, in the test on Gerbillinae [1], the IC50 amounted to 68.9 µM.

Broadly, the IC50 is the concentration at which inhibition is half-maximal.
